Converted amounts (≈) assume the structure as drawn.
Test system: Escherichia coli
Experiment: minimum inhibitory concentration (MIC)
Method: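 Broth microdilution MIC (Sensititre BOPO7F bovine plate, CLSI methods) of 19 antimicrobials against field isolates of P. multocida, M. haemolytica, H. somni (deep nasopharyngeal swabs) and E. coli, Enterococcus spp. (rectal swabs) from weaned dairy heifers. Incubation 16-24 h at 35 C. MIC is the lowest concentration preventing visible growth. Values with <= or > lie at the tested range limits. Trimethoprim-sulfamethoxazole is given as the trimethoprim component of a 1:19 mixture.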

CN[C@@H]1[C@H](O)[C@H](NC)[C@H]2O[C@@]3(O)C(=O)C[C@@H](C)O[C@H]3O[C@@H]2[C@H]1O [Spectinomycin]
Conditions	minimum inhibitory concentration [µg/mL]
isolate (source animal id): 8	16 (≈ 48.1 µM)
isolate (source animal id): 9	> 64
isolate (source animal id): 10	64 (≈ 193 µM)
isolate (source animal id): 11	16 (≈ 48.1 µM)
isolate (source animal id): 12	32 (≈ 96.3 µM)
isolate (source animal id): 13	16 (≈ 48.1 µM)
isolate (source animal id): 14	> 64
isolate (source animal id): 15	16 (≈ 48.1 µM)
isolate (source animal id): 16	16 (≈ 48.1 µM)
isolate (source animal id): 98	16 (≈ 48.1 µM)
isolate (source animal id): 99	16 (≈ 48.1 µM)
isolate (source animal id): 100	≤ 8
isolate (source animal id): 101	> 64
isolate (source animal id): 102	16 (≈ 48.1 µM)
isolate (source animal id): 103	> 64
isolate (source animal id): 104	16 (≈ 48.1 µM)
isolate (source animal id): 105	16 (≈ 48.1 µM)
isolate (source animal id): 106	32 (≈ 96.3 µM)
isolate (source animal id): 107	16 (≈ 48.1 µM)
isolate (source animal id): 108	16 (≈ 48.1 µM)
isolate (source animal id): 109	16 (≈ 48.1 µM)
isolate (source animal id): 110	≤ 8
isolate (source animal id): 111	16 (≈ 48.1 µM)
isolate (source animal id): 112	16 (≈ 48.1 µM)
isolate (source animal id): 113	16 (≈ 48.1 µM)
isolate (source animal id): 114	16 (≈ 48.1 µM)
isolate (source animal id): 115	> 64
isolate (source animal id): 116	16 (≈ 48.1 µM)
isolate (source animal id): 117	> 64
isolate (source animal id): 118	16 (≈ 48.1 µM)
isolate (source animal id): 119	> 64
isolate (source animal id): 120	> 64
isolate (source animal id): 121	> 64
isolate (source animal id): 122	> 64
isolate (source animal id): 123	16 (≈ 48.1 µM)
isolate (source animal id): 124	> 64
isolate (source animal id): 125	> 64
isolate (source animal id): 126	> 64
isolate (source animal id): 127	> 64
isolate (source animal id): 128	> 64
isolate (source animal id): 129	16 (≈ 48.1 µM)
isolate (source animal id): 130	> 64
isolate (source animal id): 131	16 (≈ 48.1 µM)
isolate (source animal id): 132	16 (≈ 48.1 µM)
isolate (source animal id): 133	> 64
isolate (source animal id): 134	16 (≈ 48.1 µM)
isolate (source animal id): 135	16 (≈ 48.1 µM)
isolate (source animal id): 136	16 (≈ 48.1 µM)
isolate (source animal id): 137	16 (≈ 48.1 µM)
isolate (source animal id): 138	> 64
isolate (source animal id): 139	> 64
isolate (source animal id): 140	16 (≈ 48.1 µM)
isolate (source animal id): 141	> 64
isolate (source animal id): 142	16 (≈ 48.1 µM)
isolate (source animal id): 143	> 64
isolate (source animal id): 144	16 (≈ 48.1 µM)
isolate (source animal id): 145	> 64
isolate (source animal id): 146	16 (≈ 48.1 µM)
isolate (source animal id): 147	> 64
isolate (source animal id): 148	16 (≈ 48.1 µM)
isolate (source animal id): 149	16 (≈ 48.1 µM)
isolate (source animal id): 150	> 64
isolate (source animal id): 151	16 (≈ 48.1 µM)
isolate (source animal id): 152	16 (≈ 48.1 µM)
isolate (source animal id): 153	16 (≈ 48.1 µM)
isolate (source animal id): 154	16 (≈ 48.1 µM)
isolate (source animal id): 155	> 64
isolate (source animal id): 156	> 64
isolate (source animal id): 157	> 64
isolate (source animal id): 158	16 (≈ 48.1 µM)
isolate (source animal id): 159	≤ 8
isolate (source animal id): 160	> 64
isolate (source animal id): 161	> 64
isolate (source animal id): 162	16 (≈ 48.1 µM)
isolate (source animal id): 163	16 (≈ 48.1 µM)
isolate (source animal id): 164	16 (≈ 48.1 µM)
isolate (source animal id): 165	> 64
isolate (source animal id): 166	≤ 8
isolate (source animal id): 167	16 (≈ 48.1 µM)
isolate (source animal id): 168	16 (≈ 48.1 µM)
isolate (source animal id): 169	16 (≈ 48.1 µM)
isolate (source animal id): 170	16 (≈ 48.1 µM)
isolate (source animal id): 171	16 (≈ 48.1 µM)
isolate (source animal id): 172	16 (≈ 48.1 µM)
isolate (source animal id): 173	16 (≈ 48.1 µM)
isolate (source animal id): 174	16 (≈ 48.1 µM)
isolate (source animal id): 175	16 (≈ 48.1 µM)
isolate (source animal id): 176	16 (≈ 48.1 µM)
isolate (source animal id): 177	32 (≈ 96.3 µM)
isolate (source animal id): 178	16 (≈ 48.1 µM)
isolate (source animal id): 179	16 (≈ 48.1 µM)
isolate (source animal id): 180	16 (≈ 48.1 µM)
isolate (source animal id): 181	> 64
isolate (source animal id): 182	16 (≈ 48.1 µM)
isolate (source animal id): 183	16 (≈ 48.1 µM)
isolate (source animal id): 184	16 (≈ 48.1 µM)
isolate (source animal id): 185	16 (≈ 48.1 µM)
isolate (source animal id): 186	16 (≈ 48.1 µM)
isolate (source animal id): 187	32 (≈ 96.3 µM)
isolate (source animal id): 188	32 (≈ 96.3 µM)

CN(C)[C@@H]1C(O)=C(C(N)=O)C(=O)[C@@]2(O)C(O)=C3C(=O)c4c(O)cccc4[C@@](C)(O)[C@H]3C[C@@H]12 [Tetracycline]
Conditions	minimum inhibitory concentration [µg/mL]
isolate (source animal id): 8	> 8
isolate (source animal id): 9	> 8
isolate (source animal id): 10	> 8
isolate (source animal id): 11	1 (≈ 2.25 µM)
isolate (source animal id): 12	> 8
isolate (source animal id): 13	> 8
isolate (source animal id): 14	> 8
isolate (source animal id): 15	> 8
isolate (source animal id): 16	> 8
isolate (source animal id): 98	> 8
isolate (source animal id): 99	2 (≈ 4.5 µM)
isolate (source animal id): 100	> 8
isolate (source animal id): 101	> 8
isolate (source animal id): 102	> 8
isolate (source animal id): 103	> 8
isolate (source animal id): 104	> 8
isolate (source animal id): 105	> 8
isolate (source animal id): 106	> 8
isolate (source animal id): 107	> 8
isolate (source animal id): 108	> 8
isolate (source animal id): 109	> 8
isolate (source animal id): 110	> 8
isolate (source animal id): 111	> 8
isolate (source animal id): 112	> 8
isolate (source animal id): 113	> 8
isolate (source animal id): 114	> 8
isolate (source animal id): 115	> 8
isolate (source animal id): 116	> 8
isolate (source animal id): 117	> 8
isolate (source animal id): 118	> 8
isolate (source animal id): 119	> 8
isolate (source animal id): 120	> 8
isolate (source animal id): 121	> 8
isolate (source animal id): 122	> 8
isolate (source animal id): 123	> 8
isolate (source animal id): 124	> 8
isolate (source animal id): 125	> 8
isolate (source animal id): 126	> 8
isolate (source animal id): 127	> 8
isolate (source animal id): 128	> 8
isolate (source animal id): 129	> 8
isolate (source animal id): 130	> 8
isolate (source animal id): 131	> 8
isolate (source animal id): 132	> 8
isolate (source animal id): 133	> 8
isolate (source animal id): 134	> 8
isolate (source animal id): 135	2 (≈ 4.5 µM)
isolate (source animal id): 136	> 8
isolate (source animal id): 137	> 8
isolate (source animal id): 138	> 8
isolate (source animal id): 139	> 8
isolate (source animal id): 140	1 (≈ 2.25 µM)
isolate (source animal id): 141	> 8
isolate (source animal id): 142	> 8
isolate (source animal id): 143	> 8
isolate (source animal id): 144	> 8
isolate (source animal id): 145	> 8
isolate (source animal id): 146	> 8
isolate (source animal id): 147	> 8
isolate (source animal id): 148	> 8
isolate (source animal id): 149	> 8
isolate (source animal id): 150	> 8
isolate (source animal id): 151	> 8
isolate (source animal id): 152	> 8
isolate (source animal id): 153	> 8
isolate (source animal id): 154	> 8
isolate (source animal id): 155	> 8
isolate (source animal id): 156	> 8
isolate (source animal id): 157	> 8
isolate (source animal id): 158	> 8
isolate (source animal id): 159	> 8
isolate (source animal id): 160	> 8
isolate (source animal id): 161	> 8
isolate (source animal id): 162	> 8
isolate (source animal id): 163	> 8
isolate (source animal id): 164	> 8
isolate (source animal id): 165	> 8
isolate (source animal id): 166	> 8
isolate (source animal id): 167	> 8
isolate (source animal id): 168	1 (≈ 2.25 µM)
isolate (source animal id): 169	1 (≈ 2.25 µM)
isolate (source animal id): 170	> 8
isolate (source animal id): 171	1 (≈ 2.25 µM)
isolate (source animal id): 172	1 (≈ 2.25 µM)
isolate (source animal id): 173	> 8
isolate (source animal id): 174	> 8
isolate (source animal id): 175	> 8
isolate (source animal id): 176	> 8
isolate (source animal id): 177	> 8
isolate (source animal id): 178	> 8
isolate (source animal id): 179	1 (≈ 2.25 µM)
isolate (source animal id): 180	> 8
isolate (source animal id): 181	> 8
isolate (source animal id): 182	> 8
isolate (source animal id): 183	> 8
isolate (source animal id): 184	> 8
isolate (source animal id): 185	> 8
isolate (source animal id): 186	1 (≈ 2.25 µM)
isolate (source animal id): 187	> 8
isolate (source animal id): 188	> 8
